Experimental data as given in paper PMC9668914, “Understanding VPAC receptor family peptide binding and selectivity” (Nature Communications, 2022).
No end group written: not given here.

Target: T1, VPAC1R (Homo sapiens, UniProt P32241)
T1 construct: An HA signal peptide was inserted in place of the native signal peptide of the receptors; HA signal peptide (replaces the native signal peptide) (N); 3C protease cleavage sites (between FLAG and receptor, and between receptor and His) (internal); expressed in transfected cells; host or cells: COS-7 (transient, PEI)
T1 sequence (P32241 31-457): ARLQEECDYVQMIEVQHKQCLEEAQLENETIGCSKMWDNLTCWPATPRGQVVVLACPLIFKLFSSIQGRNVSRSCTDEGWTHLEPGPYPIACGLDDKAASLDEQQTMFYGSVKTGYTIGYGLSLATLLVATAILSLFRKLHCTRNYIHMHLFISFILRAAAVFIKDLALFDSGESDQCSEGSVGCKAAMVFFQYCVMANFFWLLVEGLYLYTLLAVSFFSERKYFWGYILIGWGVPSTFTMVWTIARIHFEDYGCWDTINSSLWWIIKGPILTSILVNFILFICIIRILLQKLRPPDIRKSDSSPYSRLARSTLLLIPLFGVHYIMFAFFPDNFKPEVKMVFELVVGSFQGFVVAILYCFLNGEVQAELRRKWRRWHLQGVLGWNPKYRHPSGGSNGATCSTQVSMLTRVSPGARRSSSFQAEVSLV
Assay: cAMP accumulation, chimeric peptides (Fig. 5a)
Assay type: cell-based
Settings: pEC50, VPAC1R cAMP, COS-7, three-parameter logistic
Method: COS-7 cells were used for the chimeric peptide and cysteine mutagenesis pharmacological assays due to their lack of endogenous expression of PAC1R and receptor activity-modifying proteins, reported to potentially heterodimerize with PAC1R and VPAC1R[42]. […] COS-7 cells were plated in 10 cm dishes at approximately 1 million cells/dish. Cells were transfected 24 h later, with 5 µg of either WT or mutant PAC1R or VPAC1R receptor DNA. DNA and PEI (in a 1:6 ratio) were each diluted in 150 mM NaCl, and then combined and incubated for 10 min, before the mixture was added to the 10 cm dish. The next day, cells were harvested from the 10 cm dishes using Trypsin-Versene (PBS + 0.5 mM EDTA, pH 7.4), and were seeded at a density of 15,000 cells/well into clear 96-well culture plates and incubated overnight at 37 °C in 5% CO2 for cAMP accumulation assay the next day.
The reaction was terminated after 30 min by aspiration of the buffer and addition of 50 μl of ice-cold ethanol. Upon evaporation of ethanol, 75 μl of lysis buffer (5 mM HEPES, 0.1% (w/v) OVA, 0.3% (w/v) Tween20, pH 7.4) was added to the cells. cAMP detection was performed using a LANCE cAMP Detection Kit (PerkinElmer) for the construct validation and cysteine mutagenesis pharmacological assays and cAMP Gs HiRange kit (Cisbio) for the chimeric peptide pharmacological assays. The plates were read using an EnVision plate reader with excitation at 320 nm and emission at 615 nm[45].
The pharmacological data in figures and tables are reported as mean + standard error of the mean (SEM) with the number of biological replicates indicated in the figure and table legends where “n” represents the number of biological replicates performed. Concentration-response data were analyzed in GraphPad Prism version 9.4.0 using a three-parameter logistic curve to derive pEC50 values for the cyclic AMP accumulation. Competition binding data were analyzed in GraphPad Prism using the one site—Fit log IC50 model to derive pIC50 values. For the cysteine mutagenesis data, comparisons of multiple different groups were performed using one-way analysis of variance (ANOVA), followed by Dunnett’s post-hoc test with the control group being the WT receptor, with significance accepted at p < 0.05. For the chimeric peptide data, comparisons of multiple different groups were performed using one-way ANOVA, followed by Tukey’s post-hoc test, with significance accepted at p < 0.05.

Compound | EC50 (replicate n=1) [nM] | EC50 (replicate n=2) [nM] | EC50 (replicate n=3) [nM] | EC50 (replicate n=4) [nM] | EC50 (replicate n=5) [nM]
CC[C@H](C)[C@H](NC(=O)[C@H](C)NC(=O)[C@H](CC(=O)O)NC(=O)[C@H](CO)NC(=O)[C@@H](N)Cc1cnc[nH]1)C(=O)N[C@@H](Cc1ccccc1)C(=O)N[C@H](C(=O)N[C@@H](CC(=O)O)C(=O)N[C@@H](CO)C(=O)N[C@@H](Cc1ccc(O)cc1)C(=O)N[C@@H](CO)C(=O)N[C@@H](CCCNC(=N)N)C(=O)N[C@@H](Cc1ccc(O)cc1)C(=O)N[C@@H](CCCNC(=N)N)C(=O)N[C@@H](CCCCN)C(=O)N[C@@H](CCC(N)=O)C(=O)N[C@@H](CCSC)C(=O)N[C@@H](C)C(=O)N[C@H](C(=O)N[C@@H](CCCCN)C(=O)N[C@@H](CCCCN)C(=O)N[C@@H](Cc1ccc(O)cc1)C(=O)N[C@@H](CC(C)C)C(=O)N[C@@H](C)C(=O)N[C@@H](C)C(=O)N[C@H](C(=O)N[C@@H](CC(C)C)C(N)=O)C(C)C)C(C)C)[C@@H](C)O [Ala4 PACAP27] | 2.25 | 2.52 | 9.38 | 1.73 | 12.4
HSDGVFTDNYTRLRKQMAVKKYLNSILN-NH2 [Gly4 VIP] | 1.26 | 0.995 | 1.64 | 1.7 | 1.39
